Test results: patent publication US6946458B2, “N-thiolated beta-lactams: novel antibacterial agents for methicillin-resistant Staphylococcus aureus” (University of South Florida, priority 1999, dated 2005)

Legend:
Format in all cases: cell-based, Staphylococcus aureus
MRSA USF653 = test: Kirby-Bauer agar disk diffusion; design: Kirby-Bauer Disc Diffusion Test Results: unit not given here; conditions: for The Zone of Inhibition: Table 6
Method: (§1) In this study, a selection of N-methylthio-substituted β-lactams are examined for antimicrobial activity by the Kirby-Bauer disk diffusion method on agar plates. A variety of common Gram-positive and Gram-negative bacteria are tested, including clinical isolates of methicillin-resistant Staphylococcus aureus (MRSA).
(§2) Compound susceptibility measurements are obtained from agar disk diffusion experiments using 6-mm air-dried disks impregnated with 20 μg of the test compound. The values correspond to the average diameters in mm (triplicate experiments) for the zone of growth inhibition observed after 24 h. Staphylococcus aureus (ATCC 25923) and β-lactamase-producing strains of methicillin-resistant Staphylococcus aureus (labeled as MRSA USF652-659) are obtained from Lakeland Regional Medical Center, Lakeland, Fla. Staphylococcus epidermidis, Staphylococcus simulans, Staphylococcus simulans, and Microcossus luteus are clinical isolates from University of South Florida Medical Clinic. Nieserria gonnorhoeae (β-lactamase positive) is obtained from the Tampa Branch State Laboratory. PenG is penicillin G (potassium salt). Table 1 provides the zones of growth inhibition that are observed after 24 hours using the lactams of FIGS. 1A-1I (designated A-I, respectively).
(§3) Of particular interest is the ability of these compounds to retain their effectiveness against penicillin-resistant strains of Staphylococcus aureus, a dangerous hospital-borne pathogen which is becoming difficult to treat with conventional antibiotic therapy. The lactams were screened for antibacterial activity by disk diffusion on agar plates, and the resulting zones of bacterial growth inhibition measured (see Table 3; each lactam is designated by Figure number).
(§4) Table 3: Growth inhibition zones obtained from agar disk diffusion experiments using 6-mm air-dried disks impregnated with 20 μg of the test compound. The values correspond to the average diameters in mm for the zone of growth inhibition observed after 24 hours. Staphylococcus aureus and β-lactamase-producing strains of methicillin-resistant Staphylococcus aureus (labeled MRSA USF652-659) are obtained from a clinical testing laboratory at Lakeland Regional Medical Center, Lakeland, Fla.
(§5) Those compounds were tested for bioactivity using the Kirby-Bauer test on agar plates.
(§6) Biological activity is enhanced against β-lactamase producing strains of methicillin-resistant Staphylococcus aureus (MRSA). With the lactam shown in FIG. 11A serving as a lead structure, a series of other C-4 substituted derivatives (FIGS. 11B-11I) were investigated herein. Table 5 lists microbiological data for β-lactams from Kirby-Bauer Disc Diffusion Test Results (with each lactam identified by Figure number).
(§7) Scheme I summarizes the synthesis of ester compounds 4. 4-Carboxy benzaldehyde (1) is coupled with the appropriate alcohol using DCC/DMAP, followed by reaction with p-anisidine, to give imines 2. Staudinger coupling of methoxyacetyl chloride with imine 2 gives N-aryl protected β-lactam 3. N-Dearylation of β-lactam 3 with ceric ammonium nitrate and methylthiolation with N-(methylthio)phthalimide affords N-methylthio β-lactams 4. These compounds are tested for antibacterial activity by the Kirby-Bauer method of disc diffusion on agar plates. [drawing 7]

MRSA USF654 = test: Kirby-Bauer agar disk diffusion; design: Kirby-Bauer Disc Diffusion Test Results: unit not given here; conditions: for The Zone of Inhibition: Table 6
Method: as §1, §2, §3, §4, §5, §6, §7

MRSA USF652 = test: Kirby-Bauer agar disk diffusion; design: Kirby-Bauer Disc Diffusion Test Results: unit not given here; conditions: for The Zone of Inhibition: Table 6
Method: as §1, §2, §3, §4, §5, §6, §7

MRSA USF658 = test: Kirby-Bauer agar disk diffusion; design: Kirby-Bauer Disc Diffusion Test Results: unit not given here; conditions: for The Zone of Inhibition: Table 6
Method: as §1, §2, §3, §4, §5, §6, §7

MRSA USF657 = test: Kirby-Bauer agar disk diffusion; design: Kirby-Bauer Disc Diffusion Test Results: unit not given here; conditions: for The Zone of Inhibition: Table 6
Method: as §1, §2, §3, §4, §5, §6, §7

MRSA USF659 = test: Kirby-Bauer agar disk diffusion; design: Kirby-Bauer Disc Diffusion Test Results: unit not given here; conditions: for The Zone of Inhibition: Table 6
Method: as §1, §2, §3, §4, §5, §6, §7

MRSA USF656 = test: Kirby-Bauer agar disk diffusion; design: Kirby-Bauer Disc Diffusion Test Results: unit not given here; conditions: for The Zone of Inhibition: Table 6
Method: as §1, §2, §3, §4, §5, §6, §7

MRSA USF655 = test: Kirby-Bauer agar disk diffusion; design: Kirby-Bauer Disc Diffusion Test Results: unit not given here; conditions: for The Zone of Inhibition: Table 6
Method: as §1, §2, §3, §4, §5, §6, §7

[1] = system: Staphylococcus strains including MRSA; test: antibacterial activity screening, results stated in words
From the text: However, the N-alkylthio substituent is required, since reduction to the N—H analogue completely destroys the biological activity. […]
as §3
With the lactam of FIG. 6A serving as a lead structure, other C4-unsaturated derivatives (FIGS. 6B-6E) and C4-saturated analogues (FIGS. 6F-6H), were examined all of which also have activity against Staphylococcus strains including MRSA.
as §7

Staph aureus 525 = test: Kirby-Bauer agar disk diffusion
[2] = Example 6, MRSA strains of Table 6
[3] = Table 5, beta-lactamase producing strain

Compound | The Zone of Inhibition (MRSA USF653; 20 μg disk loading) [mm] | The Zone of Inhibition (MRSA USF654; 20 μg disk loading) [mm] | The Zone of Inhibition (MRSA USF652; 20 μg disk loading) [mm] | The Zone of Inhibition (MRSA USF658; 20 μg disk loading) [mm] | The Zone of Inhibition (MRSA USF657; 20 μg disk loading) [mm] | The Zone of Inhibition (MRSA USF659; 20 μg disk loading) [mm] | The Zone of Inhibition (MRSA USF656; 20 μg disk loading) [mm] | The Zone of Inhibition (MRSA USF655; 20 μg disk loading) [mm] | antibacterial activity, in words [1, 2] | antibacterial activity, in words ([1]; Example 3 SAR) | other results
CCCCCOC(=O)c1ccc(C2C(OC)C(=O)N2SC)cc1 (racemic) [4c] | 13 | 11 | 17 | 12 | 14 | 12 | 14 | 13 | about similar activity | – | –
CCOC(=O)c1ccc(C2C(OC)C(=O)N2SC)cc1 (racemic) [4b] | 14 | 9 | 17 | 11 | 14 | 13 | 11 | 12 | about similar activity | – | –
CCCCCCCCCCOC(=O)c1ccc(C2C(OC)C(=O)N2SC)cc1 (racemic) [4e] | 0 | 0 | 0 | 0 | 0 | 0 | 0 | 0 | no activity | – | –
CCCCCOC(=O)c1ccc(C2C(OC)C(=O)N2SC)cc1 (racemic) [FIG. 8C] | – | – | – | – | – | – | – | – | – | activity is maintained | –
COC1C(=O)N(SC)C1c1ccccc1 (racemic) [FIG. 6J] | – | – | – | – | – | – | – | – | – | highly active | –
COC1C(=O)N(SC)C1c1ccccc1Cl (racemic) [FIG. 7A] | – | – | – | – | – | – | – | – | – | most active analogue | –
CCCCCCCCCCOC(=O)c1ccc(C2C(OC)C(=O)N2SC)cc1 (racemic) [FIG. 8E] | – | – | – | – | – | – | – | – | – | totally devoid of activity | –
COC1C(=O)N(SC)C1c1c(Cl)cccc1Cl (racemic) [FIG. 11I] | – | – | – | – | – | – | – | – | – | – | Kirby-Bauer Disc Diffusion Test Results (MRSA USF653; [3]): 26; Kirby-Bauer Disc Diffusion Test Results (MRSA USF654; [3]): 21; Kirby-Bauer Disc Diffusion Test Results (MRSA USF652; [3]): 24; Kirby-Bauer Disc Diffusion Test Results (MRSA USF658; [3]): 20; Kirby-Bauer Disc Diffusion Test Results (MRSA USF657; [3]): 20; Kirby-Bauer Disc Diffusion Test Results (MRSA USF659; [3]): 17; Kirby-Bauer Disc Diffusion Test Results (MRSA USF656; [3]): 22; Kirby-Bauer Disc Diffusion Test Results (MRSA USF655; Table 5): 20; Kirby-Bauer Disc Diffusion Test Results (Staph aureus 525; Table 5): 24
CCC(C)SN1C(=O)C(OC)C1c1ccccc1Cl (mixture of isomers) [sec-Butyl] | – | – | – | – | – | – | – | – | – | – | Zones of Inhibition (MRSA USF653; Table 4, 20 μg disk loading): 34 mm; Zones of Inhibition (MRSA USF654; Table 4, 20 μg disk loading): 35 mm; Zones of Inhibition (MRSA USF652; Table 4, 20 μg disk loading): 38 mm; Zones of Inhibition (MRSA USF658; Table 4, 20 μg disk loading): 35 mm; Zones of Inhibition (MRSA USF657; Table 4, 20 μg disk loading): 33 mm; Zones of Inhibition (MRSA USF659; Table 4, 20 μg disk loading): 33 mm; Zones of Inhibition (MRSA USF656; Table 4, 20 μg disk loading): 36 mm; Zones of Inhibition (MRSA USF655; Table 4, 20 μg disk loading): 34 mm; Zones of Inhibition (Staph aureus 525; Table 4, 20 μg disk loading): 32 mm
COC1C(=O)N(SC)C1C(C#Cc1ccccc1)OC(C)=O (mixture of isomers) [FIG. 6I] | – | – | – | – | – | – | – | – | – | devoid of activity | –
